Test results published in patent US9579314B2 (priority 2015, dated 2017).
pIC50: −log10 of the molar value.

Assays:
[1] = biological target: Human M3 receptor (Homo sapiens, UniProt P20309); settings: read-out: M3 binding affinity
[2] = biological target: Human β2 adrenoceptor (Homo sapiens, UniProt P07550); settings: read-out: B2 binding affinity
Human β2 adrenoceptor, sequence (P07550 whole entry): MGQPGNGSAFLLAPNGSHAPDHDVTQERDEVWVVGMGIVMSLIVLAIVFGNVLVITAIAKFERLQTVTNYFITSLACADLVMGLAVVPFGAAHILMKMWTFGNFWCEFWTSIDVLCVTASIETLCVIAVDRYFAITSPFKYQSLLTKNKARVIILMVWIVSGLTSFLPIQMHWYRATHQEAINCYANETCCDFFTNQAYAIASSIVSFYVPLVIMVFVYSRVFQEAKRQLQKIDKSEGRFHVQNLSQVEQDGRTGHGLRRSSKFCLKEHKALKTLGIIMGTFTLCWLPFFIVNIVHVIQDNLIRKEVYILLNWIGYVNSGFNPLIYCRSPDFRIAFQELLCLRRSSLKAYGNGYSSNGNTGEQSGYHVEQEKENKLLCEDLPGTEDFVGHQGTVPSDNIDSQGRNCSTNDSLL

Human M3 receptor, sequence (P20309 whole entry): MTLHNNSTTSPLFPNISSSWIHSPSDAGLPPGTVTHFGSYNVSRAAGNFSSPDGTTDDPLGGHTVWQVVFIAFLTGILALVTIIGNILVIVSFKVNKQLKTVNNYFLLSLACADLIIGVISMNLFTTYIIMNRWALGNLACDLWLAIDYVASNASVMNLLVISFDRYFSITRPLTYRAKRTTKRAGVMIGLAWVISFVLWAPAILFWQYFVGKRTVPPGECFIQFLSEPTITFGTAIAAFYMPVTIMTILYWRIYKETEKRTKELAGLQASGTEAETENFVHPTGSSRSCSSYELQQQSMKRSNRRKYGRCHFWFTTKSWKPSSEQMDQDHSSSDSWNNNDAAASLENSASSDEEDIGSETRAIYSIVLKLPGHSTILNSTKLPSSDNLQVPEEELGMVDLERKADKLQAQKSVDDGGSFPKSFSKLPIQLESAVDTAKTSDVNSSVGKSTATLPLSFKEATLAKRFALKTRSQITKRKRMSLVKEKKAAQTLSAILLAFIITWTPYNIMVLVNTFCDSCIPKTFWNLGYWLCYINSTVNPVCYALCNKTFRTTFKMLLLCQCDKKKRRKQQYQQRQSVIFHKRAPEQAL

Work on `O=C(NCCCOc1cccc([C@](O)(C(=O)OCC2CCN(C3CCC3)CC2)c2ccccc2)c1)c1ccc(CNC[C@H](O)c2ccc(O)c3[nH]c(=O)ccc23)cc1` [Compound 161, (1-cyclobutylpiperidin-4-yl)methyl (S)-2-hydroxy-2-(3-(3-(4-((((R)-2-hydroxy-2-(8-hydroxy-2-oxo-1,2-dihydroquinolin-5-yl)ethyl)amino)methyl)benzamido)propoxy)phenyl)-2-phenylacetate] yielded a pIC50 [1] of 8.52 to 9.52 and a pIC50 [2] greater than 9.52.
In the case of `CN1CCC(COC(=O)[C@](O)(c2ccccc2)c2cccc(OCCCNC(=O)c3ccc(CNC[C@H](O)c4ccc(O)c5[nH]c(=O)ccc45)cc3)c2)CC1` [Compound 162, (1-methylpiperidin-4-yl)methyl (S)-2-hydroxy-2-(3-(3-(4-((((R)-2-hydroxy-2-(8-hydroxy-2-oxo-1,2-dihydroquinolin-5-yl)ethyl)amino)methyl)benzamido)propoxy)phenyl)-2-phenylacetate], the pIC50 [1] was 8.52 to 9.52 and the pIC50 [2] was greater than 9.52.
